Data on 27 compounds can be found in patent publication US20250333418A1, “PURINE COMPOUNDS, COMPOSITIONS COMPRISING THEM AND USES THEREOF” (Novo Nordisk A/S, priority 2022, published 2025).

The term IC50 denotes the concentration that inhibits the measured activity by half.

Assay [1] has as its target T1, human CB1 receptor (Homo sapiens, UniProt P21554).
T1 construct: expressed in transfected cells; host or cells: HEK293
The assay can be described thus: bioSensAll GAPL-Gi2 BRET biosensor assay in HEK293 cells transfected with hCB1; test compound added before EC75-80 of agonist CP55,940 (0.1 nM). As to conditions: vs CP55,940 0.1 nM (EC75-80), read-out: CB1 wt Gi2 IC50. The assay is classed as cell-based. The method, boiled down: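 Test compounds at 12 doses up to 600 nM preceded a 0.1 nM CP55,940 challenge in hCB1/GAPL-Gi2 HEK293 cells. After overnight 37° C incubation, methoxy e-coelenterazine (2 µM final) was added and the 515/400 nm BRET ratio normalized to positive and negative controls.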

Assay [2] has as its target T1, human CB1 receptor. The assay can be described thus: bioSensAll β-arrestin2 plasma membrane translocation (+GRK2) BRET biosensor assay in HEK293 cells transfected with hCB1; test compound added before EC75-80 of agonist CP55,940 (100 nM). The assay is classed as cell-based. The settings on record: βArrestin2 (+GRK2) BRET biosensor, vs CP55,940 100 nM (EC75-80), read-out: CB1 wt βarr2 IC50. The method, boiled down: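 Antagonist mode: compound at 12 concentrations up to 600 nM, then 100 nM CP55,940 3–5 min later, on hCB1-transfected HEK293 cells carrying the β-arrestin2 plasma-membrane biosensor plus GRK2. After overnight 37 °C incubation, 515/400 nm BRET ratio measured with 2 µM methoxy e-CTZ and standardized against positive/negative controls.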

Where only a bound is given, the exact number is not on record here.

T1 sequence (P21554 whole entry): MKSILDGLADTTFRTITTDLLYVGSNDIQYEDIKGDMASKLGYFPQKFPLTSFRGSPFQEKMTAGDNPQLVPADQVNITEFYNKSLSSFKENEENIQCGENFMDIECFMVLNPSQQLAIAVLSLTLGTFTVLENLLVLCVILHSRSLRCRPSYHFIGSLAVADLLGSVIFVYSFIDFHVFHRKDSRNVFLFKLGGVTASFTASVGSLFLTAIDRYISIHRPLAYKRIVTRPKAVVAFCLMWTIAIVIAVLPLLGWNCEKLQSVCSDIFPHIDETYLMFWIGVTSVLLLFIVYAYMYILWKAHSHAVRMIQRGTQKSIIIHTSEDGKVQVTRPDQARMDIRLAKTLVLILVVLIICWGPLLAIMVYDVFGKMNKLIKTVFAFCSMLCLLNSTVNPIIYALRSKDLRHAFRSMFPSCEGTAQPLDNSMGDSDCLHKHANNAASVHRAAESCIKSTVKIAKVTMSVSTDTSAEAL

Turning to `CN(CCO)c1nc(N2CCC(C)(C(N)=O)CC2)c2nc(-c3ncccc3F)n(-c3ccc(Cl)cc3)c2n1` [Compound 50, 1-[9-(4-chlorophenyl)-8-(3-fluoro-2-pyridyl)-2-[2-hydroxyethyl(methyl)amino]purin-6-yl]-4-methyl-piperidine-4-carboxamide], the IC50 was determined as 8.41 nM at human CB1 receptor [1] and 47.8 nM at human CB1 receptor [2].
The matching figures for `Cc1cccnc1-c1nc2c(N3CCC(C)(C(N)=O)CC3)nc(N(C)CCO)nc2n1-c1ccc(Cl)cc1` [Compound 51, 1-[9-(4-chlorophenyl)-2-[2-hydroxyethyl(methyl)amino]-8-(3-methyl-2-pyridyl)purin-6-yl]-4-methyl-piperidine-4-carboxamide]: 10.1 nM and 64.3 nM.
On the same counts, the results for `CN(CCO)c1nc(N2CCC(C)(C(N)=O)CC2)c2nc(-c3ccncc3)n(-c3ccc(Cl)cc3)c2n1` [Compound 52, 1-[9-(4-chlorophenyl)-2-[2-hydroxyethyl(methyl)amino]-8-(4-pyridyl)purin-6-yl]-4-methyl-piperidine-4-carboxamide] are 2.06 nM and 29.1 nM.
On the same counts, the results for `CC(=O)NCCOc1nc(N2CCC(C(F)(F)F)CC2)c2nc(-c3ccccc3Cl)n(-c3ccc(Cl)cc3)c2n1` [Compound 53, N-[2-[8-(2-chlorophenyl)-9-(4-chlorophenyl)-6-[4-(trifluoromethyl)-1-piperidyl]purin-2-yl]oxyethyl]acetamide] are 0.966 nM and 13.1 nM.
`C[C@@H](O)CN(C)c1nc(N2CCC(C)(C(N)=O)CC2)c2nc(-c3ccccc3Cl)n(-c3ccc(Cl)cc3)c2n1` [Compound 54, 1-[8-(2-chlorophenyl)-9-(4-chlorophenyl)-2-[[(2R)-2-hydroxypropyl]-methyl-amino]purin-6-yl]-4-methyl-piperidine-4-carboxamide]: the IC50 on human CB1 receptor [1] amounted to 0.427 nM; at human CB1 receptor [2], 1.12 nM.
On to `C[C@H](O)CN(C)c1nc(N2CCC(C)(C(N)=O)CC2)c2nc(-c3ccccc3Cl)n(-c3ccc(Cl)cc3)c2n1` [Compound 55, 1-[8-(2-chlorophenyl)-9-(4-chlorophenyl)-2-[[(2S)-2-hydroxypropyl]-methyl-amino]purin-6-yl]-4-methyl-piperidine-4-carboxamide], for which the IC50 is 0.647 nM at human CB1 receptor [1] and 4.58 nM at human CB1 receptor [2].
As for `CC1(C(N)=O)CCN(c2nc(NCCO)nc3c2nc(-c2ccccc2Cl)n3-c2ccc(Cl)cc2)CC1` [Compound 56, 1-[8-(2-chlorophenyl)-9-(4-chlorophenyl)-2-(2-hydroxyethylamino)purin-6-yl]-4-methyl-piperidine-4-carboxamide], the figures for the IC50 at human CB1 receptor [1] and at human CB1 receptor [2] were 0.83 nM and 5.41 nM, respectively.
`Cc1cn(C)c(-c2nc3c(N4CCC(C)(C(N)=O)CC4)nc(N(C)CCO)nc3n2-c2ccc(Cl)cc2)n1` [Compound 57, 1-[9-(4-chlorophenyl)-8-(1,4-dimethylimidazol-2-yl)-2-[2-hydroxyethyl(methyl)amino]purin-6-yl]-4-methyl-piperidine-4-carboxamide]: the IC50 at human CB1 receptor [1] stood at 41.2 nM; on human CB1 receptor [2], 121 nM.
For the compound `CN(CCO)c1nc(N2CCC(C)(C(N)=O)CC2)c2nc(-c3cncn3C)n(-c3ccc(Cl)cc3)c2n1` [Compound 58, 1-[9-(4-chlorophenyl)-2-[2-hydroxyethyl(methyl)amino]-8-(3-methylimidazol-4-yl)purin-6-yl]-4-methyl-piperidine-4-carboxamide], the values for the IC50 on human CB1 receptor [1] and at human CB1 receptor [2] were 6.91 nM and 515 nM, respectively.
As for `CC(C)n1cncc1-c1nc2c(N3CCC(C)(C(N)=O)CC3)nc(N(C)CCO)nc2n1-c1ccc(Cl)cc1` [Compound 59, 1-[9-(4-chlorophenyl)-2-[2-hydroxyethyl(methyl)amino]-8-(3-isopropylimidazol-4-yl)purin-6-yl]-4-methyl-piperidine-4-carboxamide], the IC50 at human CB1 receptor [1] and at human CB1 receptor [2] was over 5000 nM each time.
Regarding `CC(C)(C)OC(=O)NCCOc1nc(N2CCC(C)(C(N)=O)CC2)c2nc(-c3ccccc3Cl)n(-c3ccc(Cl)cc3)c2n1` [Compound 60, tert-butyl N-[2-[6-(4-carbamoyl-4-methyl-1-piperidyl)-8-(2-chlorophenyl)-9-(4-chlorophenyl)purin-2-yl]oxyethyl]carbamate], the IC50 amounted to 6.96 nM on human CB1 receptor [1] and 19.3 nM on human CB1 receptor [2].
With `CC1(C(N)=O)CCN(c2nc(OCCNS(C)(=O)=O)nc3c2nc(-c2ccccc2Cl)n3-c2ccc(Cl)cc2)CC1` [Compound 61, 1-[8-(2-chlorophenyl)-9-(4-chlorophenyl)-2-[2-(methanesulfonamido)ethoxy]purin-6-yl]-4-methyl-piperidine-4-carboxamide], the IC50 at human CB1 receptor [1] was 0.645 nM; at human CB1 receptor [2] it was 16.7 nM.
`FC(F)(F)C1CCN(c2nc(OCCNCc3ccccc3)nc3c2nc(-c2ccccc2Cl)n3-c2ccc(Cl)cc2)CC1` [Compound 62, N-benzyl-2-[8-(2-chlorophenyl)-9-(4-chlorophenyl)-6-[4-(trifluoromethyl)-1-piperidyl]purin-2-yl]oxy-ethanamine]: the IC50 on human CB1 receptor [1] stood at 6.14 nM; on human CB1 receptor [2], 7.62 nM.
On the same counts, the results for `CN(CCO)c1nc(N2CCC(C)(C(N)=O)CC2)c2nc(-c3ccccn3)n(-c3ccc(Cl)cc3)c2n1` [Compound 63, 1-[9-(4-chlorophenyl)-2-[2-hydroxyethyl(methyl)amino]-8-(2-pyridyl)purin-6-yl]-4-methyl-piperidine-4-carboxamide] are 9.9 nM and 65.1 nM.
The matching figures for `CN(CCO)c1nc(N2CCC(C)(C(N)=O)CC2)c2nc(-c3ccc(C#N)cn3)n(-c3ccc(Cl)cc3)c2n1` [Compound 64, 1-[9-(4-chlorophenyl)-8-(5-cyano-2-pyridyl)-2-[2-hydroxyethyl(methyl)amino]purin-6-yl]-4-methyl-piperidine-4-carboxamide]: 2.45 nM and 27.9 nM.
On to `CN(CCO)c1nc(N2CCC(C)(C(N)=O)CC2)c2nc(-c3ccc(C#N)nc3)n(-c3ccc(Cl)cc3)c2n1` [Compound 65, 1-[9-(4-chlorophenyl)-8-(6-cyano-3-pyridyl)-2-[2-hydroxyethyl(methyl)amino]purin-6-yl]-4-methyl-piperidine-4-carboxamide], for which the IC50 at human CB1 receptor [1] was 0.534 nM; at human CB1 receptor [2], 1.7 nM.
The matching figures for `C[C@@H](CO)N(C)c1nc(N2CCC(C)(C(N)=O)CC2)c2nc(-c3ccccc3Cl)n(-c3ccc(Cl)cc3)c2n1` [Compound 66, 1-[8-(2-chlorophenyl)-9-(4-chlorophenyl)-2-[[(1S)-2-hydroxy-1-methyl-ethyl]-methyl-amino]purin-6-yl]-4-methyl-piperidine-4-carboxamide]: 0.586 nM and 1.45 nM.
The matching figures for `C[C@H](CO)N(C)c1nc(N2CCC(C)(C(N)=O)CC2)c2nc(-c3ccccc3Cl)n(-c3ccc(Cl)cc3)c2n1` [Compound 67, 1-[8-(2-chlorophenyl)-9-(4-chlorophenyl)-2-[[(1R)-2-hydroxy-1-methyl-ethyl]-methyl-amino]purin-6-yl]-4-methyl-piperidine-4-carboxamide]: 1.27 nM and 4.38 nM.
`CC1(C(N)=O)CCN(c2nc(S(C)(=O)=O)nc3c2nc(-c2ccccc2Cl)n3-c2ccc(Cl)cc2)CC1` [Compound 68, 1-[8-(2-chlorophenyl)-9-(4-chlorophenyl)-2-methylsulfonyl-purin-6-yl]-4-methyl-piperidine-4-carboxamide]: the IC50 came out at 1.69 nM at human CB1 receptor [1] and 10.7 nM at human CB1 receptor [2].
The matching figures for `CCOC(=O)c1cn(-c2nc(N3CCC(C)(C(N)=O)CC3)c3nc(-c4ccccc4Cl)n(-c4ccc(Cl)cc4)c3n2)cn1` [Compound 69, ethyl 1-[6-(4-carbamoyl-4-methyl-1-piperidyl)-8-(2-chlorophenyl)-9-(4-chlorophenyl)purin-2-yl]imidazole-4-carboxylate]: 41.9 nM and 117 nM.
On to `CN(CCO)c1nc(N2CC(C(N)=O)C2)c2nc(-c3ccccc3Cl)n(-c3ccc(Cl)cc3)c2n1` [Compound 72], for which the IC50 on human CB1 receptor [1] amounted to 1.1 nM; at human CB1 receptor [2] it was 3.81 nM.
For `CN(CCO)c1nc(N2CC(C)(C(N)=O)C2)c2nc(-c3ccccc3Cl)n(-c3ccc(Cl)cc3)c2n1` [Compound 73], the results for the 50% inhibitory concentration (IC50) on human CB1 receptor [1] and on human CB1 receptor [2] were 0.556 nM and 1.77 nM, respectively.
On the same counts, the results for `CN(CCO)c1nc(N2CC(C)(O)C2)c2nc(-c3ccccc3Cl)n(-c3ccc(Cl)cc3)c2n1` [Compound 74] are 0.574 nM and 3.02 nM.
On the same counts, the results for `CN(CCO)c1nc(N2CC(C)(C#N)C2)c2nc(-c3ccccc3Cl)n(-c3ccc(Cl)cc3)c2n1` [Compound 75] are 0.399 nM and 0.834 nM.
Turning to `COC1(C)CN(c2nc(N(C)CCO)nc3c2nc(-c2ccccc2Cl)n3-c2ccc(Cl)cc2)C1` [Compound 76], the figures for the IC50 on human CB1 receptor [1] and at human CB1 receptor [2] were 0.51 nM and 1.18 nM, respectively.
For the compound `CC1(C(N)=O)CCN(c2nc(C(=O)O)nc3c2nc(-c2ccccc2Cl)n3-c2ccc(Cl)cc2)CC1` [Compound 77, 6-(4-carbamoyl-4-methyl-1-piperidyl)-8-(2-chlorophenyl)-9-(4-chlorophenyl)purine-2-carboxylic acid], the IC50 on human CB1 receptor [1] and at human CB1 receptor [2] was over 5000 nM in each case.
Consider `CC1(C(N)=O)CCN(c2nc(OCCO)nc3c2nc(-c2ccccc2Cl)n3-c2ccc(Cl)cc2)CC1` [Compound 78, 1-[8-(2-chlorophenyl)-9-(4-chlorophenyl)-2-(2-hydroxyethoxy)purin-6-yl]-4-methyl-piperidine-4-carboxamide], for which the IC50 is 0.995 nM at human CB1 receptor [1] and 5.68 nM on human CB1 receptor [2].
